Data as given in PubChem BioAssay (NCI).
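Growth conditions: 96-well plates. Treatment: test compound, 48 hours, 5 concentrations. Analysis: linear interpolation between bracketing concentrations; unreached endpoints set to highest concentration. TGI: total growth inhibition.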

Assays:
Assay in all cases: NCI tumour cell line growth inhibition, 48 h
[1] = test system: COLO 205 colon
[2] = test system: SNB-19 CNS
[3] = test system: RPMI-8226 leukemia
[4] = test system: MCF7 breast
[5] = test system: UACC-62 melanoma
[6] = test system: SK-MEL-28 melanoma
[7] = test system: BT-549 breast
[8] = test system: MDA-N
[9] = test system: SR leukemia
[10] = test system: KM12 colon
[11] = test system: LOX IMVI melanoma
[12] = test system: HOP-62 NSCLC
[13] = test system: NCI-H460 lung
[14] = test system: SK-MEL-2 melanoma
[15] = test system: U251 CNS
[16] = test system: ACHN renal
[17] = test system: HT29 colon
[18] = test system: SF-539 CNS
[19] = test system: SNB-75 CNS
[20] = test system: HCC-2998 colon
[21] = test system: SW-620 colon
[22] = test system: HCT-15 colon
[23] = test system: UACC-257 melanoma
[24] = test system: SK-MEL-5 melanoma
[25] = test system: OVCAR-5 ovarian
[26] = test system: 786-0 renal
[27] = test system: HS 578T breast
[28] = test system: M14 melanoma
[29] = test system: HOP-92 NSCLC
[30] = test system: SN12C renal
[31] = test system: CCRF-CEM leukemia
[32] = test system: SF-268 CNS
[33] = test system: DU-145 prostate
[34] = test system: K-562 leukemia
[35] = test system: OVCAR-4 ovarian
[36] = test system: HCT-116 colon
[37] = test system: UO-31 renal
[38] = test system: MOLT-4 leukemia
[39] = test system: MDA-MB-231 breast
[40] = test system: TK-10 renal
[41] = test system: T-47D breast
[42] = test system: HL-60(TB) leukemia
[43] = test system: OVCAR-8 ovarian
[44] = test system: SF-295 CNS
[45] = test system: IGROV1 ovarian
[46] = test system: SK-OV-3 ovarian
[47] = test system: PC-3 prostate
[48] = test system: A549 NSCLC
[49] = test system: NCI/ADR-RES ovarian
[50] = test system: RXF 393 renal
[51] = test system: CAKI-1 renal
[52] = test system: MALME-3M melanoma
[53] = test system: EKVX NSCLC
[54] = test system: NCI-H23 lung
[55] = test system: NCI-H522 lung
[56] = test system: MDA-MB-435
[57] = test system: NCI-H226 lung
[58] = test system: OVCAR-3 ovarian
[59] = test system: A498 renal

Work on O=C(c1c(F)c(F)c(F)c(F)c1F)n1c(=S)n(C(=O)c2c(F)c(F)c(F)c(F)c2F)c2ccccc21 yielded a TGI [1] greater than 100 µM, a TGI [2] greater than 100 µM and a TGI [3] greater than 100 µM. It also gave a TGI [4] greater than 100 µM, a TGI [5] greater than 100 µM and a TGI [6] greater than 100 µM. For the same molecule, the TGI [7] was greater than 100 µM, the TGI [8] was greater than 100 µM and the TGI [9] was greater than 100 µM. For the same molecule, the TGI [10] was greater than 100 µM, the TGI [11] was greater than 100 µM and the TGI [12] was greater than 100 µM. The TGI [13] was greater than 100 µM, the TGI [14] was greater than 100 µM and the TGI [15] was greater than 100 µM. For the same molecule, the TGI [16] was greater than 100 µM, the TGI [17] was greater than 100 µM and the TGI [18] was greater than 100 µM. The TGI [19] was greater than 100 µM, the TGI [20] was greater than 100 µM and the TGI [21] was greater than 100 µM. The TGI [22] was greater than 100 µM, the TGI [23] was greater than 100 µM and the TGI [24] was greater than 100 µM. It also gave a TGI [25] greater than 100 µM, a TGI [26] greater than 100 µM and a TGI [27] greater than 100 µM. The TGI [28] was greater than 100 µM, the TGI [29] was greater than 100 µM and the TGI [30] was greater than 100 µM. The TGI [31] was 49.9 µM, the TGI [32] was greater than 100 µM and the TGI [33] was greater than 100 µM. For the same molecule, the TGI [34] was 51.5 µM, the TGI [35] was greater than 100 µM and the TGI [36] was greater than 100 µM. The TGI [37] was greater than 100 µM, the TGI [38] was 54.3 µM and the TGI [39] was greater than 100 µM. The TGI [40] was greater than 100 µM, the TGI [41] was greater than 100 µM and the TGI [42] was 45.6 µM. For the same molecule, the TGI [43] was greater than 100 µM, the TGI [44] was greater than 100 µM and the TGI [45] was greater than 100 µM. It also gave a TGI [46] greater than 100 µM and a TGI [47] greater than 100 µM.

COC(=O)[C@@H]1Cc2ccc(OC)c(c2)OCCC(=O)N1 gave a TGI [1] greater than 100 µM, a TGI [2] greater than 100 µM and a TGI [3] greater than 100 µM. For the same molecule, the TGI [4] was greater than 100 µM, the TGI [5] was greater than 100 µM and the TGI [48] was greater than 100 µM. For the same molecule, the TGI [49] was greater than 100 µM, the TGI [6] was greater than 100 µM and the TGI [50] was greater than 100 µM. It also gave a TGI [7] greater than 100 µM, a TGI [8] greater than 100 µM and a TGI [9] greater than 100 µM. It also gave a TGI [10] greater than 100 µM, a TGI [12] greater than 100 µM and a TGI [14] greater than 100 µM. For the same molecule, the TGI [51] was greater than 100 µM, the TGI [15] was greater than 100 µM and the TGI [16] was greater than 100 µM. It also gave a TGI [17] greater than 100 µM, a TGI [52] greater than 100 µM and a TGI [19] greater than 100 µM. It also gave a TGI [53] greater than 100 µM, a TGI [20] greater than 100 µM and a TGI [54] greater than 100 µM. For the same molecule, the TGI [21] was greater than 100 µM, the TGI [22] was greater than 100 µM and the TGI [23] was greater than 100 µM. It also gave a TGI [24] greater than 100 µM, a TGI [25] greater than 100 µM and a TGI [26] greater than 100 µM. The TGI [55] was greater than 100 µM, the TGI [27] was greater than 100 µM and the TGI [28] was greater than 100 µM. The TGI [56] was greater than 100 µM, the TGI [31] was greater than 100 µM and the TGI [32] was greater than 100 µM. It also gave a TGI [33] greater than 100 µM, a TGI [34] greater than 100 µM and a TGI [35] greater than 100 µM. It also gave a TGI [36] greater than 100 µM, a TGI [37] greater than 100 µM and a TGI [38] greater than 100 µM. For the same molecule, the TGI [39] was greater than 100 µM, the TGI [40] was greater than 100 µM and the TGI [57] was greater than 100 µM. It also gave a TGI [41] greater than 100 µM, a TGI [58] greater than 100 µM and a TGI [43] greater than 100 µM. It also gave a TGI [44] greater than 100 µM, a TGI [45] greater than 100 µM and a TGI [46] greater than 100 µM. The TGI [47] was greater than 100 µM.

In the case of CC(C)(C)n1c(=O)n2c(-c3ccccc3)c(-c3ccccc3)n2c1=O, the TGI [1] was greater than 100 µM, the TGI [2] was greater than 100 µM and the TGI [3] was 61.1 µM. It also gave a TGI [4] greater than 100 µM, a TGI [5] greater than 100 µM and a TGI [48] greater than 100 µM. It also gave a TGI [49] greater than 100 µM, a TGI [6] greater than 100 µM and a TGI [50] greater than 100 µM. It also gave a TGI [7] greater than 100 µM, a TGI [8] greater than 100 µM and a TGI [10] greater than 100 µM. The TGI [11] was greater than 100 µM, the TGI [13] was greater than 100 µM and the TGI [14] was 85.3 µM. For the same molecule, the TGI [51] was greater than 100 µM, the TGI [15] was greater than 100 µM and the TGI [59] was greater than 100 µM. The TGI [16] was greater than 100 µM, the TGI [17] was greater than 100 µM and the TGI [18] was greater than 100 µM. It also gave a TGI [52] greater than 100 µM, a TGI [19] greater than 100 µM and a TGI [53] greater than 100 µM. It also gave a TGI [20] greater than 100 µM, a TGI [54] greater than 100 µM and a TGI [21] greater than 100 µM. For the same molecule, the TGI [22] was greater than 100 µM, the TGI [23] was greater than 100 µM and the TGI [24] was greater than 100 µM. It also gave a TGI [25] greater than 100 µM, a TGI [26] greater than 100 µM and a TGI [55] of 56.5 µM. The TGI [27] was greater than 100 µM, the TGI [28] was greater than 100 µM and the TGI [29] was greater than 100 µM. For the same molecule, the TGI [30] was greater than 100 µM, the TGI [56] was greater than 100 µM and the TGI [32] was greater than 100 µM. The TGI [33] was greater than 100 µM, the TGI [34] was greater than 100 µM and the TGI [35] was greater than 100 µM. For the same molecule, the TGI [36] was greater than 100 µM, the TGI [37] was greater than 100 µM and the TGI [39] was greater than 100 µM. For the same molecule, the TGI [40] was greater than 100 µM, the TGI [57] was greater than 100 µM and the TGI [41] was greater than 100 µM. It also gave a TGI [42] greater than 100 µM, a TGI [58] greater than 100 µM and a TGI [43] greater than 100 µM. It also gave a TGI [44] greater than 100 µM, a TGI [45] greater than 100 µM and a TGI [46] greater than 100 µM. The TGI [47] was greater than 100 µM.

COC(=O)C1CC2CC1C1C2SC(F)(F)C1(F)F (stereo unspecified) was tested, and the TGI [1] was greater than 100 µM, the TGI [2] was greater than 100 µM and the TGI [3] was greater than 100 µM. The TGI [4] was greater than 100 µM, the TGI [5] was greater than 100 µM and the TGI [48] was greater than 100 µM. The TGI [49] was greater than 100 µM, the TGI [6] was greater than 100 µM and the TGI [50] was greater than 100 µM. It also gave a TGI [8] greater than 100 µM, a TGI [9] greater than 100 µM and a TGI [10] greater than 100 µM. For the same molecule, the TGI [11] was greater than 100 µM, the TGI [12] was greater than 100 µM and the TGI [13] was greater than 100 µM. The TGI [14] was greater than 100 µM, the TGI [51] was greater than 100 µM and the TGI [15] was greater than 100 µM. The TGI [59] was greater than 100 µM, the TGI [16] was greater than 100 µM and the TGI [18] was greater than 100 µM. The TGI [52] was greater than 100 µM, the TGI [19] was greater than 100 µM and the TGI [53] was greater than 100 µM. The TGI [20] was greater than 100 µM, the TGI [21] was greater than 100 µM and the TGI [22] was greater than 100 µM. It also gave a TGI [23] greater than 100 µM, a TGI [24] greater than 100 µM and a TGI [25] greater than 100 µM. The TGI [26] was greater than 100 µM, the TGI [55] was greater than 100 µM and the TGI [27] was greater than 100 µM. The TGI [28] was greater than 100 µM, the TGI [30] was greater than 100 µM and the TGI [56] was greater than 100 µM. The TGI [32] was greater than 100 µM, the TGI [33] was greater than 100 µM and the TGI [35] was greater than 100 µM. The TGI [36] was greater than 100 µM, the TGI [37] was greater than 100 µM and the TGI [38] was greater than 100 µM. The TGI [39] was greater than 100 µM, the TGI [40] was greater than 100 µM and the TGI [57] was greater than 100 µM. It also gave a TGI [41] greater than 100 µM, a TGI [58] greater than 100 µM and a TGI [43] greater than 100 µM. For the same molecule, the TGI [44] was greater than 100 µM, the TGI [45] was greater than 100 µM and the TGI [46] was greater than 100 µM. The TGI [47] was greater than 100 µM.
